The record followed here is patent publication US20020127228A1, “PGT and apoptosis” (WELFIDE CORPORATION, priority 1998, published 2002).

Structures are written as SMILES.

The subject of one data set is NRK52E cells. The data set can be described thus: Apoptosis induced by NO donor GSNO in NRK52E kidney cells. The class given is cell-based, rat. On the procedure:
1) Apoptosis was induced by NO (nitrogen monoxide) in kidney cells. NRK52E cells, which are established from a rat renal tubule epithelial cell line, mainly derived from distal were cultured for 24 hours with a chamber slide that was coated with type-I collagen. Afterwards, the cultured medium was changed to a serum-free medium, and apoptosis was induced by addition of NOC12 (0.4 mM) or S-nitroso L-glutathione (GSNO: 1 mM), which are NO donors.
4) Inhibitory effect of PGE1 to the induction of apoptosis in kidney cells was investigated PGE1 was added simultaneously with the addition of a NO donor to a final concentration of 1 or 10 μM. After 24 hrs, cells were fixed with a 1% glutaraldehyde solution and stained with Hoechst 33342. Three visual fields were selected arbitrarily per slide, and the ratio of the cells count where nuclear fragmentation and condensation appeared was calculated with respect to the total cells in the field (magnification: 400x). The n was 5.
5) The relationship between PGT inhibitors and kidney cell apoptosis induced by GSNO was examined. With a final concentration of BrCG, which is a PGT inhibitor, of 60 μM, manners other than simultaneous addition with GSNO and PGE1 were in accordance with the aforementioned ones in 4). The PGE1 final concentration was 1 μM. The n was 3.
1) Drugs having suppressing activity on apoptosis inducted in kidney cells by an NO donor were investigated. PGK1 and bicyclo PGE2 were used as test drugs, but other manners were in accordance with Experiment 8. The final concentration of the test drugs was 1 μM. The n was 5.
2) It was investigated the effects of a PGT inhibitor on the apoptosis-suppressing activity of PGK1 and bicyclo PGE2 in kidney cells. With a final concentration of BrCG, which is a PGT inhibitor, of 60 μM, manners other than simultaneous addition of GSNO and test drugs were in accordance with the aforementioned methods in 1). The n was 4.

The next data set deals with T1, PGT (Rattus norvegicus, UniProt Q00910).
T1 construct: endogenous in cells; host or cells: differentiated PC12 cells
The data set can be described thus: Uptake of tritium-labelled PGE1 into differentiated PC12 cells through PGT. The class given is cell-based. As to conditions: tritium-labelled PGE1 0.1 μM, mean ± SEM. As to the method:
1) Differentiated PC12 cells and tritium-labelled PGE1 (added concentration: 0.1 μM) were subjected to 10 mins of incubation at 37° C. Afterwards, the cells were washed with ice-cold phosphate buffered saline containing 5 g/l of bovine serum albumin and next washed with ice-cold phosphate buffered saline. Then, radioactivity was measured. The amount of PGE1 uptake into PC12 cells was calculated.
2) Bromcresol green (hereinafter noted as “BrCG”), which is a PGT inhibitor, was placed together in the culture medium at the addition of PGE1. Afterwards, treatment was conducted in the same manner as mentioned in 1).
3) The antisense oligonucleotide specific to PGT cDNA was designed as follows:
Moreover, said antisense was thioate modified. Using Lipofectin (Gibco), PC12 underwent transfection during 2 days prior to the addition of PGE1. Afterwards, treatment was conducted in the same manner as mentioned in 1).

Data set [1] is described as follows: Hypotensive effect in anesthetized normal rats, mean blood pressure. The class given is in vivo, rat. More on the design: Decrease in blood pressure: unit not given here. As to conditions: 100 μg/kg body weight into caudal artery, mean blood pressure before and after, n 3. As to the method:
2) The hypotensive effect of the test drugs was examined. After anesthetizing normal rats (male, body weight of about 300 g) with intraperitoneal administration of Nembutal, the dorsal region was fixed. Next, a cannula was inserted in the carotid artery and blood pressure was measured through a transducer (Nihon Kohden Corporation); simultaneous recording was made in combination with a polygraph (Nihon Kohden Corporation). After dissolving the test drugs in ethanol, and diluted (x200) with saline. Administration was given in the caudal artery in a dose of 100 μg/kg body weight. The mean blood pressure (MBP) was measured. The decrease in blood pressure was calculated from the measured values before and after administration. The n was 3 per group.

Data set [2] deals with differentiated PC12 cells. The experiment in a line: Suppression of apoptosis in differentiated PC12 cells after NGF withdrawal, Hoechst 33342 staining. The format is cell-based, rat. As to conditions: for Incidence of apoptosis (%): 24 hrs, NGF withdrawal, mean ± SEM. On the procedure: (1) After growing rat adrenal pheochromocytoma PC12 cells (obtained by: ATCC; importer: Dainippon Pharmaceutical) with RPMI1640 containing 10 ml/l heat-inactivated horse serum and 5 ml/l heat-inactivated fetal calf serum, culturing was performed with RPMI1640 containing mouse β NGF (100 ng/ml), N2 supplement, and TIP (5 μg/ml transferrin, 5 μg/ml insulin, and 10 ng/ml progesterone). Differentiation to neuron-like cells was performed.
(2) Differentiated PC12 cells were washed with Neurobasal culture medium. After replacing the culture medium with RPMI1640 not containing β NGF, N2 supplement, and TIP, mouse β NGF antibodies (final concentration: 50 ng/ml) were added. By culturing for 24 hrs, apoptosis was induced.
(3) A PGE1 ethanol solution was added (final concentration:
0.01-1 μM) to fresh culture medium during medium replacement and culturing was performed for the same amount of time. As a negative control, a solvent (ethanol) alone was added in the same manner and culturing was performed for the same period of time. Apoptosis detection was performed by Hoechst 33342 staining (at 1 mM with a reaction in 2 minutes at room temperature) after fixation (room temperature for 30 mins) of cells with a 1% glutaraldehyde solution. Observation was made from 5 arbitrary visual fields using a fluorescence microscope. Total cell and apoptotic cells were counted, and incident of apoptosis was calculated.
(4) The values obtained were expressed as means±SEM. As for statistical analysis, a student's t-test (hereafter noted as a t-test) was used for two groups and Dunnet's test was used after one-way layout dimensional analysis (one-way ANOVA) for numerous groups; critical values for both were considered to be a significant difference below 5%.

Consider `CCCCC[C@H](O)/C=C/[C@H]1[C@H](O)CC(=O)[C@@H]1CCCCCCC(=O)O` [PGE1, prostaglandin E1], for which the “Effect on apoptosis in kidney cells (in words)” value in the data set with NRK52E cells (NO donor GSNO) is “suppressed induction of apoptosis in kidney cells”. Also, the “Incidence of apoptosis (%)” value in the data set on NRK52E cells (Table 11, GSNO 1 mM, PGE1 1 μM, 24 hrs, n 5) turned out to be 10 ± 2 %; with NRK52E cells (Table 11, GSNO 1 mM, PGE1 10 μM, 24 hrs, n 5), 11 ± 3 %; with NRK52E cells (Table 12, GSNO, PGE1 1 μM, n 3) it was 8 ± 2%; in data set [2] (PGE1 0.01 μM), 21.3 ± 1.5%; in data set [2] (PGE1 0.1 μM) it was 19.1 ± 8.1%; in data set [2] (PGE1 1 μM) it was 17.1 ± 0.6%. Further, the “Amount of PGE1 uptake” value was 73 ± 11 fmol/mg protein/10 mins on PGT (10 mins at 37° C., no BrCG (Table 3)) and 78 ± 11 fmol/mg protein/10 mins at PGT (no antisense (Table 4)). Moreover, the “Decrease in blood pressure” value in data set [1] is reported as −55. Also, the “Effect on cell apoptosis (in words)” value in data set [2] (PGE1 1 μM) is “suppressed cell apoptosis”.
